These are literature values, as cited in patent US20050136109A1, “Extended release tablet formulations of venlafaxine” (Wyeth, priority 2003, published 2005).

The conditions of the data set: plural daily dosing regimen, immediate release tablets.

Where a name gives a salt, the structure may show the parent alone.

Consider `COc1ccc(C(CN(C)C)C2(O)CCCCC2)cc1` (centres unmarked) [venlafaxine hydrochloride, 1-[2-(dimethylamino)-1-(4-methoxyphenyl)ethyl]-cyclo-hexanol], for which the “Vomiting, patients experiencing” value is reported as “about seventeen” and the “nausea, patients experiencing” value was “about forty five”.
